Experimental data reported in patent US20260373165A1, “PHARMACEUTICAL COMBINATIONS AND COMPOSITIONS, AND METHODS OF USE THEREOF” (SHENZHEN HIGHTIDE BIOPHARMACEUTICAL LTD., priority 2022, published 2026).

How the values were obtained:
Type in all cases: in vivo, mouse (C57BL/6J male, 60% HFD DIO)
[1] = Example 2: lean mass by MRI on day 23
Excerpt: (§1) After 5-6-week-old C57BL/6J male mice were acclimatized for 1 week, the weight of each mouse was weighed, and the mice were randomly divided into a control group and a model group by taking the weight as a main index, where 12 mice in the control group were fed with common feed (CD), and the mice in the remaining model group were fed with 60% high-fat feed (60% HFD) for 10-12 weeks to construct a DIO obesity model, with the average body weight being not less than 40 g. The mice fed with 60% HFD were grabbed and acclimatized with a solvent for 3 days, where the acclimatization with a solvent was performed by oral gavage of 0.5% CMC-Na, once daily.
(§2) The food intake, the body weight, the body fat ratio, and the insulin level of the mice were respectively measured, followed by fasting blood glucose level, and the mice were randomly grouped according to Table 12 by taking the body weight as an index, and the remaining ungrouped mice were euthanized. After grouping, each group of mice was administered according to Table 12, the day of administration was defined as DO, and the administration volume of each drug was determined based on the results obtained by the calculation of 5 μL/g× mouse body weight (g).
(§3) For the combined administration group, the administration sequence and the administration time were kept consistent at each administration. The mice were continuously fed with high-fat feed during the administration period until the administration was finished. During administration, 1 food intake was measured per week (difference in feed weights at an interval of 24 h was measured); each group of mice was weighed once daily; blood was collected from the tail tip on day 16 and day 30, respectively, so as to measure fasting blood glucose levels once (blood was collected after fasting from 9:00 am to 3:[…]); on day 24 of administration (D23), the body fat ratio and the lean mass of each group of mice were measured by MRI (the measurement period was kept consistent with that before grouping); after 25 days of administration intervention (day 24), each group of mice was fasted for 6 h and subjected to OGTT (0 min, 15 min, 30 min, 60 min, 90 min, 120 min) to detect their blood glucose levels; after 29 days of administration intervention (day 28), each group of mice was fasted for 6 h and subjected to OGTT (0 min, 15 min, 30 min, 60 min, 90 min, 120 min), and meanwhile subjected to blood sampling via submaxillary vein (0 min, 15 min, 30 min, about 30 μL of blood sampled each time), and then the blood plasma was separated for detecting the insulin level by ELISA, where the separated blood plasma was more than 10 μL; the next day (D30) at the end of administration was set as the test endpoint, and the mice were fasted for 6 h in the morning and subjected to fasting blood glucose level measurement; subsequently, the mice were euthanized with CO2, blood was collected from the heart of each mouse for analysis, and each group of mice was dissected; the liver and subcutaneous, epididymal and mesenteric fat was collected, photographed and weighed, respectively.
The body weight, the lean mass and the lean ratio of each animal in groups G1 to G8 were measured on day 23 and averaged for each group, and the results are shown in Table 16 below, and FIGS. 23 and 24.

[2] = Example 2: body fat mass by MRI on day 23
Excerpt: as §1, §2, §3
The body weight, the body fat mass and the body fat ratio of each animal in groups G1 to G8 were measured on day 23 and averaged for each group, and the results are shown in Table 15 below, and FIGS. 21 and 22.

[3] = Example 2: body weight and body weight change rate, combined administration of HTD1801 and dapagliflozin or empagliflozin in DIO obesity model; conditions: HTD1801 250 mpk, dapagliflozin 10 mpk, empagliflozin 15 mpk p.o. QD, semaglutide 10 nmol/kg s.c. Q3D
Excerpt: as §1, §2, §3

[4] = mean, day 23, HTD1801 250 mpk, dapagliflozin 10 mpk, empagliflozin 15 mpk p.o. QD

Structure (SMILES): COc1ccc2cc3[n+](cc2c1OC)CCc1cc2c(cc1-3)OCO2.C[C@H](CCC(=O)[O-])[C@H]1CC[C@H]2[C@@H]3[C@@H](O)C[C@@H]4C[C@H](O)CC[C@]4(C)[C@H]3CC[C@]12C [HTD1801, berberine ursodeoxycholate]
- lean ratio (in words) ([1]; day 23, relative to model control group G2): slightly increased
- Body weight ([1]; mean, day 23 (Table 16), HTD1801 250 mpk, dapagliflozin 10 mpk, empagliflozin 15 mpk p.o. QD): 38.9 g
- Lean (lean mass) [1, 4]: 5.1 g
- Lean ratio [1, 4]: 13.0%
- body fat mass and body fat ratio (in words) ([2]; day 23, relative to control group G2): significantly decreased
- Body weight ([2]; mean, day 23 (Table 15), HTD1801 250 mpk, dapagliflozin 10 mpk, empagliflozin 15 mpk p.o. QD): 38.9 g
- Body fat ratio [2, 4]: 44.8%
- Fat (body fat mass) [2, 4]: 17.5 g
- body weight change / weight loss effect (in words) [3]: close to that of the semaglutide group, with a uniform and sustained decrease throughout the administration period
- Body weight (mean) ([3]; day 0 (baseline)): 45.3 g
- Body weight change rate ([3]; day 0 (baseline)): 0.0%
- Body weight (mean) ([3]; day 1): 44.5 g
- Body weight change rate ([3]; day 1): −1.6%
- Body weight (mean) ([3]; day 2): 44.1 g
- Body weight change rate ([3]; day 2): −2.5%
- Body weight (mean) ([3]; day 3): 44.1 g
- Body weight change rate ([3]; day 3): −2.5%
- Body weight (mean) ([3]; day 4): 43.6 g
- Body weight change rate ([3]; day 4): −3.7%
- Body weight (mean) ([3]; day 5): 43.1 g
- Body weight change rate ([3]; day 5): −4.9%
- Body weight (mean) ([3]; day 6): 42.7 g
- Body weight change rate ([3]; day 6): −5.7%
- Body weight (mean) ([3]; day 7): 42.7 g
- Body weight change rate ([3]; day 7): −5.7%
- Body weight (mean) ([3]; day 8): 42.5 g
- Body weight change rate ([3]; day 8): −6.2%
- Body weight (mean) ([3]; day 9): 41.9 g
- Body weight change rate ([3]; day 9): −7.5%
- Body weight (mean) ([3]; day 10): 41.9 g
- Body weight change rate ([3]; day 10): −7.4%
- Body weight (mean) ([3]; day 11): 41.7 g
- Body weight change rate ([3]; day 11): −7.9%
- Body weight (mean) ([3]; day 12): 41.3 g
- Body weight change rate ([3]; day 12): −8.7%
- Body weight (mean) ([3]; day 13): 40.3 g
- Body weight change rate ([3]; day 13): −10.9%
- Body weight (mean) ([3]; day 14): 40.5 g
- Body weight change rate ([3]; day 14): −10.7%
- Body weight (mean) ([3]; day 15): 40.3 g
- Body weight change rate ([3]; day 15): −11.1%
- Body weight (mean) ([3]; day 16): 40.2 g
- Body weight change rate ([3]; day 16): −11.2%
- Body weight (mean) ([3]; day 17): 39.9 g
- Body weight change rate ([3]; day 17): −11.8%
- Body weight (mean) ([3]; day 18): 39.7 g
- Body weight change rate ([3]; day 18): −12.3%
- Body weight (mean) ([3]; day 19): 39.4 g
- Body weight change rate ([3]; day 19): −12.8%
- Body weight (mean) ([3]; day 20): 39.3 g
- Body weight change rate ([3]; day 20): −13.2%
- Body weight (mean) ([3]; day 21): 39.1 g
- Body weight change rate ([3]; day 21): −13.5%
- Body weight (mean) ([3]; day 22): 39.2 g
- Body weight change rate ([3]; day 22): −13.4%
- Body weight (mean) ([3]; day 23): 38.9 g
- Body weight change rate ([3]; day 23): −14.0%
- Body weight (mean) ([3]; day 24): 38.2 g
- Body weight change rate ([3]; day 24): −15.6%
- Body weight (mean) ([3]; day 25): 38.4 g
- Body weight change rate ([3]; day 25): −15.1%
- Body weight (mean) ([3]; day 26): 38.6 g
- Body weight change rate ([3]; day 26): −14.6%
- Body weight (mean) ([3]; day 27): 38.7 g
- Body weight change rate ([3]; day 27): −14.5%
- Body weight (mean) ([3]; day 28): 38.4 g
- Body weight change rate ([3]; day 28): −15.1%
- Body weight (mean) ([3]; day 29): 37.4 g
- Body weight change rate ([3]; day 29): −17.4%
